Data: patent US20250092065A1, “2-(INDAZOL-5-YL)-6-(PIPERIDIN-4-YL)-1,7-NAPHTHYRIDINE DERIVATIVES AND RELATED COMPOUNDS AS MODULATORS FOR SPLICING NUCLEIC ACIDS AND FOR THE TREATMENT OF PROLIFERATIVE DISEASES” (REMIX THERAPEUTICS INC., priority 2022, published 2025)
Where two headings read alike, the source gives them in different places.

Experiments:
SMN2 mRNA = test: RT-qPCR splicing assay, SMN2 mRNA; format: cell-based, human; details: Homo sapiens, canonical junction qPCR panel, Table 4; read-out: SMN2 IC50 (decrease in CJ mRNA levels)
Procedure, shortened: (§1)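 A673 or K562 cells treated 24 h at 37 °C with 11-point 3-fold dilutions (top final 10 uM, DMSO ≤0.25%). Lysates analysed by one-step RT-qPCR for canonical (CJ) and alternative-exon (AJ) junctions, normalized to GAPDH, GUSB or PPIA. ΔΔCt vs DMSO, RQ = 2^(−ΔΔCt), expressed as percentage response.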

HTT mRNA = test: RT-qPCR splicing assay, HTT mRNA canonical (CJ) and alternative (AJ) junction; format: cell-based, human; details: Homo sapiens
Procedure, shortened: as §1

MYB mRNA = test: RT-qPCR splicing assay, MYB mRNA canonical (CJ) and alternative (AJ) junction; format: cell-based, human; details: Homo sapiens
Procedure, shortened: as §1

Target C = test: RT-qPCR canonical junction panel assay, Target C mRNA; format: cell-based; details: Table 4, read-out: Target C IC50 (decrease in CJ mRNA levels)
Method: Compounds described herein were used to modulate RNA transcript abundance in cells. The expression of a target mRNA was measured by detecting the formation of an exon-exon junction in the canonical transcript (CJ). A compound mediated exon-inclusion event was detected by observing an increase in formation of a new junction with an alternative exon (AJ). Real-time qPCR assays were used to detect these splicing switches and interrogate the potency of various compounds towards different target genes. A high-throughput real time quantitative PCR (RT-qPCR) assay was developed to measure these two isoforms of the mRNA (CJ and AJ) for exemplary genes, such as HTT, SMN2, and MYB, together with a control housekeeping gene, GAPDH or GUSB or PPIA, used for normalization. Briefly, the A673 or K562 cell line was treated with various compounds described herein (e.g., compounds of Formula (I)). After treatment, the levels of the HTT, MYB, or SMN2 mRNA targets were determined from each sample of cell lysate by cDNA synthesis followed by qPCR.
The data analysis was performed by first determining the ΔCt vs the housekeeper gene. This ΔCt was then normalized against the DMSO control (ΔΔCt) and converted to RQ (relative quantification) using the 2^(−ΔΔCt) equation. The RQ were then converted to a percentage response by arbitrarily setting an assay window of 3.5 and 4.0 ΔCt for HTT-CJ and MYB-CJ respectively and an assay window of 9 and 3 ΔCt for HTT-AJ and MYB-AJ in 96 well format (50,000 K562 cells/well and 15,000 A673 cells per well) and an assay window of 3 and 4 ΔCt for HTT-CJ and MYB-CJ respectively and an assay window of 5 and 3 ΔCt for HTT-AJ and MYB-AJ respectively in 384 well format (8,000 K562 cells/well example). […] The percentage response was then fitted to the 4 parametric logistic equation to evaluate the concentration dependence of compound treatment. The increase in AJ mRNA is reported as AC50 (compound concentration having 50% response in AJ increase) while the decrease in CJ mRNA levels is reported as IC50 (compound concentration having […] in CJ decrease).
Additional studies were carried out for a larger panel of genes using the protocol provided above. The junction between flanking upstream and downstream exons was used to design canonical junction Qpcr assays. At least one of the forward primer, reverse primer or the CY5-labeled 5′ nuclease probe (with 3′ quencher such as ZEN/Iowa Black FQ) was designed to overlap with the exon junction to capture the CJ Mrna transcript. BLAST was used to confirm the specificity of the probeset and parameters suCH As melting temperature, GC content, amplicon size, and primer dimer formation are considered during their design. Data for the decrease in CJ Mrna levels for four exemplary genes (HTT, SMN2, MYB, and Target C) analyzed in this panel are reported as IC50 (compound concentration having […] in CJ decrease).

K562 cells = test: Cell Titer Glo 2.0 cell viability (toxicity) assay, K562; details: 500 cells/well, 72 hours
[1] = HTT alternative junction mRNA, RT-qPCR, read-out: HTT AJ (increase in AJ mRNA, AC50)
[2] = HTT canonical junction mRNA, RT-qPCR, read-out: HTT CJ (decrease in CJ mRNA levels, IC50)
[3] = canonical junction qPCR panel, Table 4, read-out: HTT IC50 (decrease in CJ mRNA levels)
[4] = MYB alternative junction mRNA, RT-qPCR, read-out: MYB AJ (increase in AJ mRNA, AC50)
[5] = MYB canonical junction mRNA, RT-qPCR, read-out: MYB CJ (decrease in CJ mRNA levels, IC50)
[6] = canonical junction qPCR panel, Table 4, read-out: MYB IC50 (decrease in CJ mRNA levels)
[7] = RT-qPCR, HTT alternative junction mRNA increase, read-out: HTT AJ (increase in alternative junction mRNA, AC50)
[8] = RT-qPCR, HTT canonical junction mRNA decrease, read-out: HTT CJ (decrease in canonical junction mRNA, IC50)
[9] = RT-qPCR, MYB alternative junction mRNA increase, read-out: MYB AJ (increase in alternative junction mRNA, AC50)
[10] = RT-qPCR, MYB canonical junction mRNA decrease, read-out: MYB CJ (decrease in canonical junction mRNA, IC50)

Row | Structure (SMILES) | IC50 (SMN2 mRNA) [nM] | AC50 (HTT mRNA; [1]) [nM] | IC50 (HTT mRNA; [2]) [nM] | IC50 (HTT mRNA; [3]) [nM] | AC50 (MYB mRNA; [4]) [nM] | IC50 (MYB mRNA; [5]) [nM] | IC50 (MYB mRNA; [6]) [nM] | IC50 (Target C) [nM] | AC50 (HTT mRNA; [7]) [nM] | IC50 (HTT mRNA; [8]) [nM] | AC50 (MYB mRNA; [9]) [nM] | IC50 (MYB mRNA; [10]) [nM] | Effect of Exemplary Compounds on Cell Viability, K562 (K562 cells)
1 | Cc1nc2c(F)c(O)c(-c3ccc4nc(N5CC[C@@H](NC6(CF)CC6)C5)ccc4n3)cc2o1 (single isomer, unassigned) [Compound 372] | < 100 | < 100 | < 100 | < 100 | < 100 | < 100 | < 100 | < 100 | – | – | – | – | –
2 | C[C@H]1CN(c2cc(F)c3nc(-c4cc(F)c5nn(C)cc5c4)ccc3c2)CCN1 (single isomer, unassigned) [Compound 789] | < 100 | – | – | 100 to 1000 | – | – | < 100 | 100 to 1000 | 100 to 1000 | 100 to 1000 | < 100 | < 100 | B (B represents 100-1000 nM)
3 | CCc1nc2cc(O)c(-c3ccc4nc(N5CC[C@@H](NC(C)(C)C)C5)ccc4n3)cc2o1 (single isomer, unassigned) [Compound 808] | 100 to 1000 | – | – | 1000 to 10000 | – | – | 1000 to 10000 | 1000 to 10000 | 1000 to 10000 | 1000 to 10000 | 1000 to 10000 | 1000 to 10000 | C (C represents 1000-9999 nM)
4 | CCc1nc2cc(O)c(-c3ccc4nc(N5CC[C@H](NC(C)(C)C)C5)ccc4n3)cc2o1 (single isomer, unassigned) [Compound 809] | 1000 to 10000 | – | – | 1000 to 10000 | – | – | 1000 to 10000 | 1000 to 10000 | 1000 to 10000 | 1000 to 10000 | 1000 to 10000 | 1000 to 10000 | C (C represents 1000-9999 nM)
5 | Cc1c(O)c(-c2ncc3cc(N4C[C@H](C)NC5(CC5)C4)ccc3n2)cc2cn(C)nc12 (single isomer, unassigned) [Compound 810] | < 100 | – | – | 1000 to 10000 | – | – | 100 to 1000 | 1000 to 10000 | 1000 to 10000 | 1000 to 10000 | 100 to 1000 | 100 to 1000 | B (B represents 100-1000 nM)
6 | Cc1nc2c(F)c(O)c(-c3ccc4nc(N5CCC(NCC6CC6)C5)ccc4n3)cc2o1 (stereo not drawn) [Cmpd 294] | < 100 | < 100 | < 100 | < 100 | < 100 | < 100 | < 100 | < 100 | – | – | – | – | –
7 | Cc1nc2c(C)c(O)c(-c3ccc4nc(N5CC[C@@H](NC(C)C)C5)ncc4n3)cc2o1 [Cmpd 415] | < 100 | < 100 | < 100 | < 100 | < 100 | < 100 | < 100 | < 100 | – | – | – | – | –
8 | CN(c1ccc2nc(-c3cc4cn(C)nc4cc3O)ccc2n1)C1CC(C)(C)N(C)C(C)(C)C1 [Compound 130] | 100 to 1000 | > 10000 | > 10000 | > 10000 | > 10000 | > 10000 | > 10000 | > 10000 | – | – | – | – | –
9 | COc1cc2nc(C3CCNCC3)ccc2nc1-c1cc2c(C)nc(C)cn2n1 [Compound 343, 2-{4,6-dimethylpyrazolo[1,5-a]pyrazin-2-yl}-3-methoxy-6-(piperidin-4-yl)-1,5-naphthyridine] | < 100 | 1000 to 10000 | 1000 to 10000 | 1000 to 10000 | 1000 to 10000 | 1000 to 10000 | 1000 to 10000 | > 10000 | – | – | – | – | –
10 | Cc1cn2nc(-c3ncc4cc(N5CCNC6(CC6)C5)ccc4n3)cc(C)c2n1 [Compound 795, 2-(2,8-dimethylimidazo[1,2-b]pyridazin-6-yl)-6-(4,7-diazaspiro[2.5]octan-7-yl)quinazoline] | – | – | – | > 10000 | – | – | 1000 to 10000 | > 10000 | > 10000 | > 10000 | 1000 to 10000 | 1000 to 10000 | C (C represents 1000-9999 nM)
11 | Cn1cc2cc(-c3ncc4cc(N5CCC(N6CCC6)CC5)ccc4n3)c(O)cc2n1 [Compound 801, 5-{6-[4-(azetidin-1-yl)piperidin-1-yl]quinazolin-2-yl}-2-methylindazol-6-ol] | – | – | – | 1000 to 10000 | – | – | 100 to 1000 | 1000 to 10000 | 1000 to 10000 | 1000 to 10000 | 1000 to 10000 | 100 to 1000 | B (B represents 100-1000 nM)
12 | C[C@H]1CN(c2ccc3nc(-c4cc(F)c5nn(C)cc5c4)ncc3c2)C[C@H](C)N1 [Compound 802, 6-[(3S,5S)-3,5-dimethylpiperazin-1-yl]-2-(7-fluoro-2-methylindazol-5-yl)quinazoline] | – | – | – | 100 to 1000 | – | – | 100 to 1000 | 100 to 1000 | 100 to 1000 | 100 to 1000 | 100 to 1000 | 100 to 1000 | B (B represents 100-1000 nM)
13 | Cc1cn2nc(-c3ccc4cc(N5CCNC6(CC6)C5)cc(F)c4n3)cc(C)c2n1 [Compound 804, 6-{4,7-diazaspiro[2.5]octan-7-yl}-2-{2,8-dimethylimidazo[1,2-b]pyridazin-6-yl}-8-fluoroquinoline] | – | – | – | 100 to 1000 | – | – | 100 to 1000 | 100 to 1000 | 100 to 1000 | 100 to 1000 | 100 to 1000 | 100 to 1000 | B (B represents 100-1000 nM)
